# Earlier results as cited in patent US10588921B2, “Drug for the treatment of cholesterol accumulation disorders” (NATIONAL UNIVERSITY CORPORATION KUMAMOTO UNIVERSITY, priority 2013, dated 2020).
# System: rats
# Conditions: acute intravenous administration to rats; cited from earlier work
row,Compound,intravenous dose showing lethality to 50% of population (LD50 value) [mg/kg]
1,OC[C@H]1O[C@@H]2O[C@H]3[C@H](O)[C@@H](O)[C@@H](O[C@H]4[C@H](O)[C@@H](O)[C@@H](O[C@H]5[C@H](O)[C@@H](O)[C@@H](O[C@H]6[C@H](O)[C@@H](O)[C@@H](O[C@H]7[C@H](O)[C@@H](O)[C@@H](O[C@H]1[C@H](O)[C@H]2O)O[C@@H]7CO)O[C@@H]6CO)O[C@@H]5CO)O[C@@H]4CO)O[C@@H]3CO [α-cyclodextrin],1000
2,OC[C@H]1O[C@@H]2O[C@H]3[C@H](O)[C@@H](O)[C@@H](O[C@H]4[C@H](O)[C@@H](O)[C@@H](O[C@H]5[C@H](O)[C@@H](O)[C@@H](O[C@H]6[C@H](O)[C@@H](O)[C@@H](O[C@H]7[C@H](O)[C@@H](O)[C@@H](O[C@H]8[C@H](O)[C@@H](O)[C@@H](O[C@H]1[C@H](O)[C@H]2O)O[C@@H]8CO)O[C@@H]7CO)O[C@@H]6CO)O[C@@H]5CO)O[C@@H]4CO)O[C@@H]3CO [β-cyclodextrin],788
3,OC[C@H]1O[C@@H]2O[C@H]3[C@H](O)[C@@H](O)[C@@H](O[C@H]4[C@H](O)[C@@H](O)[C@@H](O[C@H]5[C@H](O)[C@@H](O)[C@@H](O[C@H]6[C@H](O)[C@@H](O)[C@@H](O[C@H]7[C@H](O)[C@@H](O)[C@@H](O[C@H]8[C@H](O)[C@@H](O)[C@@H](O[C@H]9[C@H](O)[C@@H](O)[C@@H](O[C@H]1[C@H](O)[C@H]2O)O[C@@H]9CO)O[C@@H]8CO)O[C@@H]7CO)O[C@@H]6CO)O[C@@H]5CO)O[C@@H]4CO)O[C@@H]3CO [γ-cyclodextrin],> 3750
